In patent publication US20240299383A1, “IMMUNOMODULATOR COMPOSITION COMPRISING AZVUDINE” (HENAN GENUINE BIOTECH CO., LTD., priority 2023, published 2024):

How the values were obtained:
[1] = tested on: murine colorectal cancer CT-26 cell line; test: Azvudine in combination with PD-1 antibody in murine colorectal cancer CT-26 homograft tumor model; assay type: in vivo, BALB/c female mouse; details: for T/C (%) / TGI(%): tumor volume on the 17th day; for T/Cweight (%): 17th day
Description: Further, the anti-tumor effect of azvudine in combination with PD-1 antibody on BALB/c female mouse subcutaneously xenografted with murine colorectal cancer CT-26 cell line animal model was studied.

CT26 cells [2] = test: Anti-tumor effect of azvudine in CT-26 tumor-bearing mice with severe immunodeficiency; assay type: in vivo; details: mice with severe immunodeficiency (B-NDG), o.p., QD×2 W
[3] = tested on: cytokines (GM-CSF, MCP-1, IFNγ, IFNβ, TNFa, IL2, IL4, IL8, IL10); test: Release level of cytokines in serum and tumor tissue by MSD method, CT26 tumor model; assay type: in vivo, BALB/c mice; details: vs Vehicle
Experimental: CT26 cells were cultured in RPMI 1640 medium containing 10% fetal bovine serum at 37° C. in a 5% CO2 incubator. The cells were passaged routinely once a week. When the cell saturation reached 80%-90% and the cell number achieved the requirement, the cells were collected, counted and inoculated.
Animals were BALB/c female mice, 8 weeks old and weighing 18.5-22.9 g, which were provided by Shanghai Lingchang Biotechnology Co., Ltd.
0.1 mL (0.3×10^6) of CT26 cells were subcutaneously inoculated into each mouse. When the average tumor volume reached 101 mm^3, the mice were grouped and administered.
• 1) Quick-frozen tissue samples were taken out from the −80° C. refrigerator. • 2) On dry ice, part of the tumor tissue (about 50-100 mg) were cut out, and put into a 2 mL centrifuge tube with steel beads. Then the tube was added with 350 μL of cell lysis solution RIPA (in which 1% protease inhibitor and phosphatase inhibitor had been freshly added). • 3) The tissue was crushed with Tissue grinder at the highest frequency for 5 min. • 4) The tissue lysate was put on ice for 30 min. • 5) The tissue lysate was centrifuged at 12,000 rpm at 4° C. for 10 min. The supernatant was collected and put into a new 1.5 mL centrifuge tube.
• 1) The protein extract was diluted 50 times (2 μL of protein extract+98 μL of RIPA cell lysis buffer). • 2) Standard product and diluted samples were added at 10 μL/well in a 96-well transparent plate. • 3) Preparation of working solution: Reagent A and reagent B were mixed at a ratio of 50:1. 200 μL of the mixture was added to each well. • 4) The 96-well transparent plate was incubated at 37° C. for 30 min. • 5) The OD value at 562 nm was detected by a microplate reader, and then the tumor protein was quantified according to the OD result. • 6) The total protein concentration of the tumor samples was uniformly 2 mg/mL. • 7) The protein was quantified with BCA quantification kit. • 8) According to the quantitation results, the sample protein concentration was uniformly diluted to 2 μg/μL with RIPA lysis solution. • 9) MSD experiment was performed or the diluted samples were stored in a −80° C. refrigerator.
• 1) Preparation of standard product: 250 μL of Diluent 43 diluent was added to the standard product. The mixture was mixed well, and left to stand at room temperature for 15-30 min, and serially diluted by 4 times using Diluent 43 to obtain standard products Nos. 1-7. Diluent 43 was standard product No. 8. • 2) Sample dilution: The samples were diluted with Diluent 43. • 3) Antibody dilution: 100× antibody stock solution was diluted to 1×. • 4) Buffer preparation: 5× buffer was diluted to 1× with deionized water.
• 1) 200 μL of each biotin antibody was added to 300 μL of the designated linker. The resulting mixture was stirred by vortex and incubated at room temperature for 30 min. • 2) 200 μL of stop solution was added. The resulting mixture was stirred by vortex and incubated at room temperature for 30 min. • 3) 600 μL of each U-PLEX Linker-Coupled antibody solution (10×) was mixed into a tube and mixed by vortex. • 4) When the number of binding antibodies was less than 10, the solution was supplemented to 6 ml with stop solution. • 5) 50 μL of multiplex coating solution was added to each well. The plate was sealed with an adhesive board, and shaken at room temperature for 1 h. • 6) The wells were washed 3 times with 1× MSD wash Buffer at 150 μL/well. • 7) Standard product and detection antibody solutions were prepared. • 8) 25 μL of Diluent 43 was added to each well. • 9) 25 μL of prepared standard product, tissue sample or serum sample was added to each well. The plate was sealed with an adhesive board, and incubated at room temperature for 1 h. • 10) The wells were washed 3 times with 1× MSD wash Buffer at 150 μL/well. • 11) 50 μL of detection antibody solution was added to each well. […]

CT26 cells [4] = test: Anti-tumor effect of azvudine in CT26 tumor-bearing mice with normal immune function; assay type: in vivo, BALB/c mouse; details: mice with normal immunity (BALB/c), o.p., QD×2 W
B-cell lymphoma A20 = test: Azvudine in combination with PD-1 antibody in B-cell lymphoma A20 tumor-bearing mouse model; assay type: in vivo
Description: The effect of azvudine in combination with PD-1 antibody on the B-cell lymphoma A20 tumor-bearing mouse model was further studied.

[5] = tested on: immune cells in CT26 tumor; test: Infiltration of immune cells in tumor by flow cytometry, CT26 tumor model; assay type: in vivo, BALB/c mice
Experimental: Tumor tissue was washed once with PBS, and removed of fat. The tumor tissue was quickly cut into small pieces. The chopped tumor tissue was transferred to a tube C containing 5 mL of digestive enzyme mixed solution. The tube C was put in a tissue processor, the tissue fragments were ensured to be submerged in the digestive enzyme, and the program m_imptumor_01_01 was performed. The sample was put in a water bath shaker at 37° C. for 30 min of digestion. After the digestion was completed, the program m_imptumor_01_01 was performed again, and then an appropriate amount of PBS containing 2% fetal bovine serum was added to terminate the digestion. The obtained mixture was filtered with a […] cell mesh to remove residual tissue, and washed with PBS. An appropriate volume of PBS was added according to the amount of cell precipitate to resuspend cells. Then the cells were gently blown evenly, and counted with a hemocytometer. An appropriate amount of cells were taken out and stained with antibodies.
The cells were resuspended with PBS to a concentration of 1×10^6 cells/100 μL. The cell suspension was added to a 96-well V-bottom plate at 100 μL per well. The plate was centrifuged at 450 g at 4° C. for 5 min, and the supernatant solution was discarded. The cells were resuspended with 100 μL of prepared Zombie NIR Live/Dead solution, then cultured at 4° C. in the dark for 30 min, and then washed twice with PBS. Then the cells in each well were resuspended with 50 μL of staining buffer containing Fc receptor inhibitor (1 μL of Fc receptor inhibitor+49 μL of staining buffer), and cultured at 4° C. in the dark for 5 min. Then the cells in each well were resuspended with 50 μL of Brilliant staining buffer containing Pacific Orange CD8, BV605 MHCII, BV650 CD25, BV750 CD45, BV785 Ly6C, AF488 CD11c, AF532 CD11b, PE-DZL594 CD49b, APC Ly6G, APC-Cy5.5 CD4, APC-Cy7 CD13, BV42 CD69 (or an isotype control antibody thereof), and cultured at 4° C. in the dark for 30 min. After staining was completed, the cells were washed twice with 200 μL of staining buffer.
The cells in each well were resuspended with 100 μL of Fixation/Permeabilization, and cultured at 4° C. in the dark for 30 min. After permeabilization was completed, the cells were washed twice with 200 μL of Permeabilization buffer. The cells were resuspended with 100 μL of Permeabilization buffer containing Fc receptor inhibitor, and cultured at 4° C. in the dark for 5 min. Then the cells were directly added with intracellular antibodies PE-Cy7 FoxP3 and PE Ki67 (or an isotype control antibody thereof), and cultured at 4° C. in the dark for 30 min. After staining was completed, the cells were washed twice with 200 μL of Permeabilization buffer, and resuspended with 200 μL of staining buffer. The flow cytometry detection was completed within 24 h.
The flow cytometry data was analyzed using FlowJo, SPSS and Graphpad Prism softwares, specifically including the following: • 1) The proportion of CD45+ cells in living cells of tumor tissue; • 2) The ratio of T, CD4+T, CD8+T, Treg, Myeloid, DC, NK, PMN-MDSC and M-MDSC in CD45+ cells; • 3) The ratio of CD8+T to Treg and the ratio of CD4+Teff to Treg; • 4) The CD69 positive rate and median fluorescence intensity (MFI) in T, CD4+T, and CD8+T cells; • 5) The Ki67 positive rate and median fluorescence intensity (MFI) in T, CD4+T, CD8+ and T cells; • 6) The number of T, CD4+T, CD8+T, Treg, Myeloid, DC, NK, PMN-MDSC, M-MDSC, and white blood cells per 100 mg of tumor tissue;
In this experiment, the CT26 tumor model was established on BALB/c mice, and the mice were treated with azvudine at different doses (0.25 mg/kg, 1 mg/kg). Tumor samples were collected. Then the proportion of each immune cell subset and the activation and proliferation of T, CD4+T and CD8+T were detected by flow cytometry.

[6] = tumor tissue, 0.25 mg/kg and 1 mg/kg PO QD × 5D, certain dose-dependency
[7] = 0.25 mg/kg and 1 mg/kg PO QD × 5D, dose-dependent
[8] = after administration, 0.25 and 1 mg/kg, vs control group
[9] = high-dose group (1 mg/kg PO QD × 5D)

SMILES: [N-]=[N+]=N[C@]1(CO)O[C@@H](n2ccc(N)nc2=O)[C@@H](F)[C@@H]1O [Azvudine]
- Tumor weight (mg) (On the 17th day) ([1]; Azvudine 0.25 mg/kg): 848 ± 210 mg
- Tumor volume (mm^3) on the 17th day ([1]; Azvudine 0.25 mg/kg p.o. QD × 18 days): 768 ± 74 mm^3
- Tumor volume (mm^3) on the 17th day ([1]; Azvudine 0.25 mg/kg p.o. QD × 18 days, listed as azvudine): 768 mm^3
- T/C (%) ([1]; Azvudine 0.25 mg/kg p.o.): 39.18%
- TGI(%) ([1]; Azvudine 0.25 mg/kg p.o.): 63.26%
- T/Cweight (%) ([1]; Azvudine 0.25 mg/kg): 42.52%
- Tumor weight (mg) (On the 17th day) ([1]; Azvudine 0.5 mg/kg): 386 ± 256 mg
- Tumor volume (mm^3) on the 17th day ([1]; Azvudine 0.5 mg/kg p.o. QD × 18 days): 347 ± 77 mm^3
- Tumor volume (mm^3) on the 17th day ([1]; Azvudine 0.5 mg/kg p.o. QD × 18 days, listed as azvudine): 347 mm^3
- T/C (%) ([1]; Azvudine 0.5 mg/kg p.o.): 17.63%
- TGI(%) ([1]; Azvudine 0.5 mg/kg p.o.): 84.85%
- T/Cweight (%) ([1]; Azvudine 0.5 mg/kg): 19.37%
- IR(%) (CT26 cells [2]; 0.25 mpk): 9.4%
- TGI(%) (CT26 cells [2]; 0.25 mpk): 13%
- IR(%) (CT26 cells [2]; 1 mpk): 49.2%
- TGI(%) (CT26 cells [2]; 1 mpk): 53%
- release of MCP-1 ([3]; serum samples, 0.25 mg/kg PO QD × 5D, 2 h after last administration): significantly reduced
- release of IL8 ([3]; serum samples, 0.25 mg/kg and 1 mg/kg PO QD × 5D): significantly reduced
- other cytokines ([3]; serum samples, 0.25 mg/kg and 1 mg/kg): no significant change
- release of IFN-β [3, 6]: decreased
- release of IFNγ [3, 6]: increased
- release of TNFα [3, 6]: increased
- IR(%) (CT26 cells [4]; 0.25 mpk): 57.5%
- TGI(%) (CT26 cells [4]; 0.25 mpk): 63%
- IR(%) (CT26 cells [4]; 1 mpk): 84.5%
- TGI(%) (CT26 cells [4]; 1 mpk): 94%
- IR(%) (B-cell lymphoma A20; Azvudine single drug, 1 mpk): 70.8%
- TGI(%) (B-cell lymphoma A20; Azvudine single drug, 1 mpk): 70%
- inhibitory activity on the B-cell lymphoma A20 tumor-bearing mice (B-cell lymphoma A20; administered alone): certain inhibitory activity
- TGI (B-cell lymphoma A20; azvudine 2 mg/kg): 88%
- infiltration of immune cells in the tumor ([5]; 0.25 mg/kg and 1 mg/kg PO QD × 5D, vs control group): increased
- infiltration of CD8+T cells in the tumor [5, 7]: increase
- infiltration of NK cells in the tumor [5, 7]: increase
- other cell subsets after administration ([5]; 0.25 and 1 mg/kg, compared with the control group): no significant change
- expression level of CD69 in T, CD4+ T, and CD8+ T cells [5, 8]: no significant difference
- expression level of Ki67 in T, CD4+ T, and CD8+ T cells [5, 8]: no significant difference
- proportion of M-MDSC cells [5, 9]: significant reduction
- proportion of PMN-MDSC cells [5, 9]: significant reduction
- proportion of myeloid cells [5, 9]: significantly reduced
- ratio of CD4Teff/Treg [5, 9]: significantly increased
- ratio of CD8T/Treg [5, 9]: significantly increased
- CD8T/Treg and CD4Teff/Treg ratios and proportion of myeloid, M-MDSC, PMN-MDSC cells ([5]; low-dose group (0.25 mg/kg PO QD × 5D), compared with high-dose group): same trend
